In patent US20170107577A1, “Determining Cancer Aggressiveness, Prognosis and Responsiveness to Treatment” (THE COUNCIL OF THE QUEENSLAND INSTITUTE OF MEDICAL RESEARCH, priority 2014, published 2017):
Entries after “also recorded” stand apart in the source; their conditions may differ. Where two headings read alike, the source gives them in different places.

How the values were obtained:
Format in all cases: cell-based
breast cancer cell lines = assay: Aurora kinase inhibitor sensitivity of breast cancer cell lines by Agro, TN and iBCR score (two published studies)
Experimental: Two studies which treated breast cancer cell lines with Aurora kinase inhibitors were analyzed based on the Agro, TN and the iBCR score for these cell lines.

[1] = system: breast cancer cell lines (TNBC and non-TNBC); assay: Cell survival (CellTiter 96 MTS/MTA assay) of breast cancer cell lines after drug treatment; details: 6 days; for survival of cells, combination of TTKi with docetaxel: very low (sub-lethal) doses, TNBC cell lines which overexpress TTK vs cell lines which do not
Experimental: FIG. 5: Therapeutic targets in the aggressiveness gene list. (A) The TNBC cell lines, MDA-MB-231, SUM159PT and Hs578T were treated with control siRNA (Scrambled, Sc CTRL) or siRNA targeting the specified genes and the survival of these cells was compared on day 6. Data shown is the average from the three cell lines where each cell line was treated in triplicate. * p<0.05, ** p<0.01 and *** <0.001 from One-Way ANOVA analysis performed using GraphPad® Prism. (B) A panel of breast cancer cell lines was used to prepare lysates for immunoblotting of TTK. Tubulin was used as the loading control. (C) Dose response curves for the treatment of breast cancer cell lines in the absence or presence of escalating doses of the TTK inhibitor (TTKi) AZ3146. The survival of cells was measured using the CellTitre® MTS/MTA assay carried out 6 days after treatment. Percentage survival (n=3 per dose) was calculated as the percentage of the signal from treated cells to that from control cells. […]
FIG. 7: TTK associates with aggressive subtypes and is a therapeutic target. […] The survival of cells was measured using the MTS/MTA assay as described in Methods. *** p<0.001 comparing the combination to single agents and to non-TNBC cell lines from Two-Way Anova in GraphPad® Prism. […]
Breast cancer cell lines were obtained from ATCC™ (VA, USA) and cultured as per ATCC™ instructions. […] Six days after siRNA knockdown or after drug treatments the survival of cells in comparison to control was determined using the CellTiter 96® Assay as per manufacturer instructions (Promega Corporation, WI, USA). For immunoblotting, standard protocols were used and membranes were probed with antibodies against TTK (anti-MPS1 mouse monoclonal antibody [N1] ab11108 (Abcam, Cambridge), and γ-tubulin (Sigma-Aldrich®) then developed using chemiluminescence reagent plus (Milipore, MA, USA). Flow cytometry to quantify apoptosis was performed using Annexin V-Alexa488 and 7-AAD (Life Technologies) as per manufacturer instruction using BD FACSCanto II™ flow cytometer (BD Biosciences, CA, USA).

MDA-MB-231 cells = assay: Apoptosis assay by flow cytometry (Annexin V / 7-AAD); details: MDA-MB-231, collected at 96 hours
Excerpt: FIG. 7: TTK associates with aggressive subtypes and is a therapeutic target. (A) Kaplan-Meier survival curves are shown for Grade 3 tumors, lymph node positive patients (LN^+) and LN^+ patients with grade 3 tumors. Log-rank Test and p-value were used for these survival curves. For patients with TNBC, and HER2, survival was statistically significant using the Gehan-Breslow-Wilcoxon test (p-values marked by asterisks) which gives more weight to deaths at early time points. […] Survival curves and statistical analyses were performed using GraphPad® Prism. (B) TNBC and non-TNBC cell lines were treated for 6 days with the specified concentrations of docetaxel (doc) alone, TTK inhibitor (TTKi) alone of the combinations. The survival of cells was measured using the MTS/MTA assay as described in Methods. *** p<0.001 comparing the combination to single agents and to non-TNBC cell lines from Two-Way Anova in GraphPad® Prism. (C) MDA-MB-231 cells were treated with docetaxel or TTKi alone or in combination and collected at 96 hours to perform apoptosis assays by flow cytometry. […]
Breast cancer cell lines were obtained from ATCC™ (VA, USA) and cultured as per ATCC™ instructions. […] Six days after siRNA knockdown or after drug treatments the survival of cells in comparison to control was determined using the CellTiter 96® Assay as per manufacturer instructions (Promega Corporation, WI, USA). […]

[2] = high iBCR score breast cancer cell lines, read-out: IC50, high iBCR score cell lines
[3] = low iBCR score breast cancer cell lines, read-out: IC50, low iBCR score cell lines

IC50 (breast cancer cell lines; [2]) [nM] | IC50 (breast cancer cell lines; [3]) [nM] | Compound | sensitivity (survival of cells) to the TTK inhibitor ([1]; panel of breast cancer cell lines, TNBC cell lines vs other cell lines) | survival of cells, combination of TTKi with docetaxel [1] | apoptotic cell death, combination of TTKi with docetaxel (MDA-MB-231 cells)
0.3 | 0.7 | Cc1csc(-c2nnc(Nc3ccc(Oc4ncccc4-c4ccnc(N)n4)cc3)c3ccccc23)c1 [AMG 900] |  |  | 
1400 | 5900 | Cc1cc(Nc2cc(N3CCN(C)CC3)nc(/C=C/c3ccccc3)n2)n[nH]1 [ENMD-2076] |  |  | 
 |  | AZ3146 | effective against TNBC cell lines; also recorded: TNBC cell lines were more sensitive | synergized with docetaxel | induced apoptotic cell death
 |  | CC(=O)O[C@@]12CO[C@@H]1C[C@H](O)[C@@]1(C)C(=O)[C@H](O)C3=C(C)[C@@H](OC(=O)[C@H](O)[C@@H](NC(=O)OC(C)(C)C)c4ccccc4)C[C@@](O)([C@@H](OC(=O)c4ccccc4)[C@H]21)C3(C)C [docetaxel] |  | synergized | induced apoptotic cell death
